Results on 22 molecules are retold here after patent US9090576B2, “2-substituted-p-quinone derivatives for treatment of oxidative stress diseases” (Edison Pharmaceuticals, Inc., priority 2008, dated 2015).

Common to all, as to format: cell-based
The test system of experiment [1] is Human dermal fibroblasts from Friedreich's Ataxia patients. Put plainly: Rescue of BSO-stressed FRDA fibroblasts (Calcein AM viability). As to conditions: BSO-stressed FRDA fibroblasts (GM04078). On the procedure:
An initial screen was performed to identify compounds effective for the amelioration of redox disorders. Test samples, 4 reference compounds (Idebenone, decylubiquinone, Trolox and α-tocopherol acetate), and solvent controls were tested for their ability to rescue FRDA fibroblasts stressed by addition of L-buthionine-(S,R)-sulfoximine (BSO), as described in Jauslin et al., Hum. Mol. Genet. 11(24):3055 (2002), Jauslin et al., FASEB J. 17:1972-4 (2003), and International Patent Application WO 2004/003565. […] This specific BSO-mediated cell death can be prevented by administration of antioxidants or molecules involved in the antioxidant pathway, such as α-tocopherol, selenium, or small molecule glutathione peroxidase mimetics. However, antioxidants differ in their potency, i.e. the concentration at which they are able to rescue BSO-stressed FRDA fibroblasts.
MEM (a medium enriched in amino acids and vitamins, catalog no. 1-31F24-I) and Medium 199 (M199, catalog no. 1-21F22-I) with Earle's Balanced Salts, without phenol red, were purchased from Bioconcept. Fetal Calf Serum was obtained from PAA Laboratories. Basic fibroblast growth factor and epidermal growth factor were purchased from PeproTech. Penicillin-streptomycin-glutamine mix, L-buthionine (S,R)-sulfoximine, (+)-α-tocopherol acetate, decylubiquinone, and insulin from bovine pancreas were purchased from Sigma. Trolox (6-hydroxy-2,5,7,8-tetramethylchromane-2-carboxylic acid) was obtained from Fluka. Idebenone was obtained from Chemo Iberica. Calcein AM was purchased from Molecular Probes. Cell culture medium was made by combining 125 ml M199 EBS, 50 ml Fetal Calf Serum, 100 U/ml penicillin, 100 μg/ml streptomycin, 2 mM glutamine, 10 μg/ml insulin, 10 ng/ml EGF, and 10 ng/ml bFGF; MEM EBS was added to make the volume up to 500 ml. A 10 mM BSO solution was prepared by dissolving 444 mg BSO in 200 ml of medium with subsequent filter-sterilization. During the course of the experiments, this solution was stored at +4° C. The cells were obtained from the Coriell Cell Repositories (Camden, N.J.; repository number GM04078) and grown in 10 cm tissue culture plates. Every third day, they were split at a 1:3 ratio.
The test samples were supplied in 1.5 ml glass vials. The compounds were diluted with DMSO, ethanol or PBS to result in a 5 mM stock solution. Once dissolved, they were stored at −20° C. Reference antioxidants (Idebenone, decylubiquinone, α-tocopherol acetate and trolox) were dissolved in DMSO.
Test samples were screened according to the following protocol:
(§1) A culture with FRDA fibroblasts was started from a 1 ml vial with approximately 500,000 cells stored in liquid nitrogen. Cells were propagated in 10 cm cell culture dishes by splitting every third day in a ratio of 1:3 until nine plates were available. Once confluent, fibroblasts were harvested. For 54 micro titer plates (96 well-MTP) a total of 14.3 million cells (passage eight) were re-suspended in 480 ml medium, corresponding to 100 μl medium with 3,000 cells/well. The remaining cells were distributed in 10 cm cell culture plates (500,000 cells/plate) for propagation. The plates were incubated overnight at 37° C. in an atmosphere with 95% humidity and 5% CO2 to allow attachment of the cells to the culture plate.
(§2) MTP medium (243 μl) was added to a well of the microtiter plate. The test compounds were unfrozen, and 7.5 μl of a 5 mM stock solution was dissolved in the well containing 243 μl medium, resulting in a 150 μM master solution. Serial dilutions from the master solution were made. The period between the single dilution steps was kept as short as possible (generally less than 1 second).
Plates were kept overnight in the cell culture incubator. The next day, 10 μl of a 10 mM BSO solution were added to the wells, resulting in a 1 mM final BSO concentration. Forty-eight hours later, three plates were examined under a phase-contrast microscope to verify that the cells in the 0% control (wells E1-H1) were clearly dead. […]

Experiment [2] concerns human dermal fibroblasts from LHON patients. Nature of the experiment: Rescue of BSO-stressed fibroblasts from LHON patients (screen as Example A). The note with it: Fibroblast, read-out: EC50, protection against LHON. On the procedure: as §1, §2
(§3) Plates were kept overnight in the cell culture incubator. The next day, 10 μl of a 10 mM BSO solution were added to the wells, resulting in a 1 mM final BSO concentration. Forty-eight hours later, three plates were examined under a phase-contrast microscope to verify that the cells in the 0% control (wells E1-H1) were clearly dead. The medium from all plates was discarded, and the remaining liquid was removed by gently tapping the plate inversed onto a paper towel.
(§4) 100 μl of PBS containing 1.2 μM Calcein AM were then added to each well. The plates were incubated for 50-70 minutes at room temperature. After that time the PBS was discarded, the plate gently tapped on a paper towel and fluorescence (excitation/emission wavelengths of 485 nm and 525 nm, respectively) was read on a Gemini fluorescence reader. Data was imported into Microsoft Excel (EXCEL is a registered trademark of Microsoft Corporation for a spreadsheet program) and used to calculate the EC50 concentration for each compound.
Compounds of the invention were screened as described in Example A, but substituting FRDA cells with Leber's Hereditary Optic Neuropathy (LHON) cells obtained from the Coriell Cell Repositories (Camden, N.J.; repository number GM03858). The compounds were tested for their ability to rescue human dermal fibroblasts from LHON patients from oxidative stress.

Experiment [3] deals with human dermal fibroblasts from Huntington's patients. Nature of the experiment: Rescue of BSO-stressed fibroblasts from Huntington's patients (screen as Example A). The note with it: Fibroblast, read-out: EC50, protection against Huntington's. On the procedure: as §1, §2, §3, §4
Compounds of the invention were tested using the screen as described in Example A, but substituting FRDA cells with Huntington's cells obtained from the Coriell Cell Repositories (Camden, N.J.; repository number GM 04281). The compounds were tested for their ability to rescue human dermal fibroblasts from Huntington's patients from oxidative stress.

Setting [4] is: less than about 150 nM, read-out: EC50, protection against FRDA.
[5] abbreviates: BSO-stressed LHON fibroblasts (GM03858), less than about 150 nM.
[6] abbreviates: BSO-stressed Huntington's fibroblasts (GM 04281), less than about 150 nM.
Where [7] appears, read: 1 mM BSO, 48 h, first of three experiments, read-out: EC50 Value 1.
The mark [8] stands for this setting: 1 mM BSO, 48 h, second of three experiments, read-out: EC50 Value 2.
The mark [9] stands for this setting: 1 mM BSO, 48 h, third of three experiments, read-out: EC50 Value 3.
Setting [10] is: average of three experiments, read-out: EC50 Average.

Where two headings read alike, the source gives them in different places.

Take `CCNC(=O)NCCC1=C(C)C(=O)C(C)=C(c2ccc(Cl)cc2)C1=O` [1-(2-(5-(4-chlorophenyl)-2,4-dimethyl-3,6-dioxocyclohexa-1,4-dienyl)ethyl)-3-ethylurea]: the EC50 in experiment [1] (setting [4]) and in experiment [2] (setting [5]) was less than 150 nM in each case.

For `CC1=C(C)C(=O)C(CCCC(=O)N2CCCC2)=C(C)C1=O` [2,3,5-trimethyl-6-(4-oxo-4-(pyrrolidin-1-yl)butyl)cyclohexa-2,5-diene-1,4-dione], the half-maximal effective concentration (EC50) – broadly, the midpoint of the concentration-response curve – in experiment [1] (setting [4]) is less than 150 nM.

As for `CC1=C(C)C(=O)C(CCCC(=O)N2CCC(F)(F)CC2)=C(C)C1=O` [2-(4-(4,4-difluoropiperidin-1-yl)-4-oxobutyl)-3,5,6-trimethylcyclohexa-2,5-diene-1,4-dione], the concentration giving a half-maximal response (EC50) in experiment [2] (setting [5]) is less than 150 nM.

In the case of `CC1=C(C)C(=O)C(CCCC(=O)N2CCN(C(=O)C3CCCCC3)CC2)=C(C)C1=O` [2-(4-(4-(cyclohexanecarbonyl)piperazin-1-yl)-4-oxobutyl)-3,5,6-trimethylcyclohexa-2,5-diene-1,4-dione], in experiment [2] (setting [5]), the concentration giving a half-maximal response (EC50) was less than 150 nM.

On to `CC1=C(C)C(=O)C(CCCC(=O)N2CCN(C(=O)c3ccccc3)CC2)=C(C)C1=O` [2-(4-(4-benzoylpiperazin-1-yl)-4-oxobutyl)-3,5,6-trimethylcyclohexa-2,5-diene-1,4-dione], for which the EC50 in experiment [2] (setting [5]) was less than 150 nM.

As for `CC1=C(C)C(=O)C(CCC(C)C(=O)N2CCC(F)CC2)=C(C)C1=O` (stereo not shown) [2-(4-(4-fluoropiperidin-1-yl)-3-methyl-4-oxobutyl)-3,5,6-trimethylcyclohexa-2,5-diene-1,4-dione], the EC50 in experiment [2] (setting [5]) and in experiment [3] (setting [6]) was less than 150 nM in each case.

`CC1=C(C)C(=O)C(CCCC(=O)N2CCC(F)CC2)=C(C)C1=O` [2-(4-(4-fluoropiperidin-1-yl)-4-oxobutyl)-3,5,6-trimethylcyclohexa-2,5-diene-1,4-dione]: in experiment [2] (setting [5]), the EC50 is less than 150 nM.

In the case of `CC1=C(C)C(=O)C(CCC(C)C(=O)N2CCC(O)CC2)=C(C)C1=O` (stereo not shown) [2-(4-(4-hydroxypiperidin-1-yl)-3-methyl-4-oxobutyl)-3,5,6-trimethylcyclohexa-2,5-diene-1,4-dione], in experiment [1] (setting [4]), the EC50 was less than 150 nM.

As to `CC1=C(C)C(=O)C(CCNC(=O)C(O)c2ccc(Cl)cc2)=C(C)C1=O` (stereo not shown) [2-(4-chlorophenyl)-2-hydroxy-N-(2-(2,4,5-trimethyl-3,6-dioxocyclohexa-1,4-dienyl)ethyl)acetamide], the EC50 in experiment [2] (setting [5]) and in experiment [3] (setting [6]) was less than 150 nM throughout.

Take `CC1=C(C)C(=O)C(CCNC(=O)C(O)c2ccccc2)=C(C)C1=O` (stereo not shown) [2-hydroxy-2-phenyl-N-(2-(2,4,5-trimethyl-3,6-dioxocyclohexa-1,4-dienyl)ethyl)acetamide]: the EC50 in experiment [1] (setting [4]) and in experiment [2] (setting [5]) was less than 150 nM each time.

Regarding `CC1=C(C)C(=O)C(CCC(C)C(N)=O)=C(C)C1=O` (stereo not shown) [2-methyl-4-(2,4,5-trimethyl-3,6-dioxocyclohexa-1,4-dienyl)butanamide], in experiment [2] (setting [5]), the EC50 is less than 150 nM.

On to `CCCNC(=O)C(C)CCC1=C(C)C(=O)C(C)=C(C)C1=O` (stereo not shown) [2-methyl-N-propyl-4-(2,4,5-trimethyl-3,6-dioxocyclohexa-1,4-dienyl)butanamide], for which the EC50 in experiment [3] (setting [6]) is less than 150 nM.

Take `CCNC(=O)N(C)CCC1=C(C)C(=O)C(C)=C(C)C1=O` [3-Ethyl-1-methyl-1-(2-(2,4,5-trimethyl-3,6-dioxocyclohexa-1,4-dienyl)ethyl)urea]: the EC50 in experiment [1] (setting [4]) is less than 150 nM.

Take `CC1=C(C)C(=O)C(CCNC(=O)N2CCC(=O)CC2)=C(C)C1=O` [4-Oxo-N-(2-(2,4,5-trimethyl-3,6-dioxocyclohexa-1,4-dienyl)ethyl)piperidine-1-carboxamide]: the EC50 in experiment [2] and in experiment [3] was less than 150 nM in each case.

On to `CC1=C(C)C(=O)C(CCNC(=O)N2CCC(O)CC2)=C(C)C1=O` [4-hydroxy-N-(2-(2,4,5-trimethyl-3,6-dioxocyclohexa-1,4-dienyl)ethyl)piperidine-1-carboxamide], for which, in experiment [2] (setting [5]), the EC50 is less than 150 nM.

As for `CCCCCCCCCCC1=C(C)C(=O)C(OC)=C(OC)C1=O` [Decylubiquinone, decylubiquinone, reference compound], the concentration for a half-maximal effect (EC50) in experiment [1] (setting [7]) was 50 nM; in experiment [1] (setting [8]) it was 35 nM; in experiment [1] (setting [9]) it was 30 nM; in experiment [1] (setting [10]) it was 38 nM.

For `COC1=C(OC)C(=O)C(CCCCCCCCCCO)=C(C)C1=O` [Idebenone, reference compound], the EC50 in experiment [1] (setting [7]) was 1500 nM; in experiment [1] (setting [8]), 1000 nM; in experiment [1] (setting [9]), 1000 nM; in experiment [1] (setting [10]), 1200 nM.

On to `CC1=C(C)C(=O)C(CCNC(=O)c2cccnc2)=C(C)C1=O` [N-(2-(2,4,5-trimethyl-3,6-dioxocyclohexa-1,4-dienyl)ethyl)nicotinamide], for which, in experiment [2] (setting [5]), the EC50 was less than 150 nM.

Consider `CC1=C(C)C(=O)C(CCNC(=O)N2CCCCC2)=C(C)C1=O` [N-(2-(2,4,5-trimethyl-3,6-dioxocyclohexa-1,4-dienyl)ethyl)piperidine-1-carboxamide], for which, in experiment [1] (setting [4]), the EC50 was less than 150 nM.

Regarding `CC1=C(CCNC(=O)C2CCC(F)(F)CC2)C(=O)C(c2ccc(Cl)cc2)=C(C)C1=O` [N-(2-(5-(4-chlorophenyl)-2,4-dimethyl-3,6-dioxocyclohexa-1,4-dienyl)ethyl)-4,4-difluorocyclohexanecarboxamide], the half-maximal effective concentration (EC50) in experiment [1] (setting [4]) and in experiment [2] (setting [5]) was less than 150 nM throughout.

Take `Cc1c(C)c2c(c(C)c1O)CCC(C)(C(=O)O)O2` (stereo not shown) [Trolox, 6-hydroxy-2,5,7,8-tetramethylchromane-2-carboxylic acid, reference compound]: the EC50 in experiment [1] (setting [7]) was 9000 nM; in experiment [1] (setting [8]), 9000 nM; in experiment [1] (setting [9]), 8000 nM; in experiment [1] (setting [10]), 8700 nM.

For the molecule `CC(=O)Oc1c(C)c(C)c2c(c1C)CCC(C)(CCC[C@H](C)CCC[C@H](C)CCCC(C)C)O2` (stereo partly drawn) [alpha-Tocopherol acetate, (+)-α-tocopherol acetate, reference compound], the EC50 in experiment [1] (setting [7]) was 400 nM; in experiment [1] (setting [8]) it was 150 nM; in experiment [1] (setting [9]) it was 350 nM; in experiment [1] (setting [10]), 300 nM.
